The subject of this experiment is immunoglobulin light chain protein WIL-FL T46L. Description: Differential scanning fluorimetry (thermal shift) assay. The format is binding. As to conditions: Table B; temperature shift [Tm]compound-[Tm]vehicle; recombinant WIL-FL T46L. (DSF heats the sample and reads unfolding from a dye or from intrinsic fluorescence.)
With `Cc1cc(N2CC[C@](C)(c3ccccc3)C2)cn2nc(C(=O)NC3CC4(C3)CN(C(=O)C35CC(C(=O)O)(C3)C5)C4)nc12` [Compound 681], the DSF result was “***** (>2.5° C.=*****)”.

As to `Cc1cc(N2CC[C@](C)(c3ccccc3)C2)cn2nc(C(=O)NC3(CO)CCCN(c4cccc(C(=O)O)n4)C3)nc12` (stereo partly drawn) [Compound 682, 6-[3-(hydroxymethyl)-3-[[8-methyl-6-[(3R)-3-methyl-3-phenyl-pyrrolidin-1-yl]-[1,2,4]triazolo[1,5-a]pyridine-2-carbonyl]amino]-1-piperidyl]pyridine-2-carboxylic acid], the DSF entry is given as “***** (>2.5° C.=*****)”. The result for `Cc1cc(N2CC[C@](C)(c3ccccc3)C2)cn2nc(C(=O)N[C@@H]3CN(c4cccc(C(=O)O)n4)CC3(C)C)nc12` [Compound 683] reads “***** (>2.5° C.=*****)”. In the case of `Cc1cc(N2CC[C@](C)(c3ccccc3)C2)cn2nc(C(=O)NC3CN(c4cccc(C(=O)O)n4)CC3O)nc12` (some centres unmarked) [Compound 684], the DSF entry is “***** (>2.5° C.=*****)”. With `Cc1cc(N2CC[C@](C)(c3ccccc3)C2)cn2nc(C(=O)NC3C4CCN(c5cccc(C(=O)O)n5)CC43)nc12` (stereo partly drawn) [Compound 685, 6-(7-(8-methyl-6-((R)-3-methyl-3-phenylpyrrolidin-1-yl)-[1,2,4]triazolo[1,5-a]pyridine-2-carboxamido)-3-azabicyclo[4.1.0]heptan-3-yl)picolinic acid], the DSF entry is given as “***** (>2.5° C.=*****)”. With `Cc1cc(N2CC[C@](C)(c3ccccc3)C2)cn2nc(C(=O)N3CCC(O)(CNc4cccc(C(=O)O)n4)C3)nc12` (some centres unmarked) [Compound 686], the DSF result was “***** (>2.5° C.=*****)”.

For `Cc1cc(N2CC[C@](C)(c3ccccc3)C2)cn2nc(C(=O)N3CCC4(C3)CN(c3cccc(C(=O)O)n3)C(=O)O4)nc12` (some centres unmarked) [Compound 687], the DSF entry is “***** (>2.5° C.=*****)”.

On to `Cc1cc(N2CC[C@](C)(c3ccccc3)C2)cn2nc(C(=O)N3CCC4C3CC(=O)N4c3cccc(C(=O)O)n3)nc12` (some centres unmarked) [Compound 688], for which the DSF entry is recorded as “***** (>2.5° C.=*****)”. As for `Cc1cc(N2CC[C@](C)(c3ccccc3)C2)cn2nc(C(=O)NC[C@@H]3CCCN3c3cccc(C(=O)O)n3)nc12` [Compound 689], the DSF result is “***** (>2.5° C.=*****)”. The result for `Cc1cc(N2CC[C@](C)(c3ccccc3)C2)cn2nc(C(=O)NC3CC4(C3)CN(c3ccnc(C(=O)O)c3)C4)nc12` [Compound 691, (R)-4-(6-(8-methyl-6-(3-methyl-3-phenylpyrrolidin-1-yl)-[1,2,4]triazolo[1,5-a]pyridine-2-carboxamido)-2-azaspiro[3.3]heptan-2-yl)picolinic acid] reads “***** (>2.5° C.=*****)”. `Cc1ccc(C(=O)O)nc1N1CCC2(CCN(C(=O)c3nc4c(C)cc(N5CC[C@](C)(c6ccccc6)C5)cn4n3)C2)C1` (some centres unmarked) [Compound 692]: the DSF result was “***** (>2.5° C.=*****)”. As for `Cc1cc(N2CC[C@](C)(c3ccccc3)C2)cn2nc(C(=O)N[C@@H]3CCCN(c4cccc(C(=O)O)n4)C3)nc12` [Compound 693], the DSF entry is “***** (>2.5° C.=*****)”. The result for `Cc1cc(N2CC[C@](C)(c3ccccc3)C2)cn2nc(C(=O)N3CCCN(c4ccc(C(=O)O)cn4)CC3)nc12` [Compound 694] reads “***** (>2.5° C.=*****)”; that for `Cc1cc(N2CC[C@](C)(c3ccccc3)C2)cn2nc(C(=O)N3CC4CCC3C(=O)N4c3cccc(C(=O)O)n3)nc12` (stereo partly drawn) [Compound 695, 6-[5-[8-methyl-6-[(3R)-3-methyl-3-phenyl-pyrrolidin-1-yl]-[1,2,4]triazolo[1,5-a]pyridine-2-carbonyl]-3-oxo-2,5-diazabicyclo[2.2.2]octan-2-yl]pyridine-2-carboxylic acid], “***** (>2.5° C.=*****)”. As to `Cc1cc(N2CC[C@](C)(c3ccccc3)C2)cn2nc(C(=O)N3CC(CNc4cccc(C(=O)O)n4)C(C)(O)C3)nc12` (stereo partly drawn) [Compound 696, 6-(((4-hydroxy-4-methyl-1-(8-methyl-6-((R)-3-methyl-3-phenylpyrrolidin-1-yl)-[1,2,4]triazolo[1,5-a]pyridine-2-carbonyl)pyrrolidin-3-yl)methyl)amino)picolinic acid], the DSF entry is recorded as “***** (>2.5° C.=*****)”. The result for `Cc1cc(N2CC[C@](C)(c3ccccc3)C2)cn2nc(C(=O)NC3C4CC3N(c3cccc(C(=O)O)n3)C4)nc12` (stereo partly drawn) [Compound 697, 6-[5-[[8-methyl-6-[(3R)-3-methyl-3-phenyl-pyrrolidin-1-yl]-[1,2,4]triazolo[1,5-a]pyridine-2-carbonyl]amino]-2-azabicyclo[2.1.1]hexan-2-yl]pyridine-2-carboxylic acid] reads “***** (>2.5° C.=*****)”; that for `Cc1cc(N2CC[C@](C)(c3ccccc3)C2)cn2nc(C(=O)N[C@@H]3CN(c4cccc(C(=O)O)n4)CC34CC4)nc12` [Compound 698], “***** (>2.5° C.=*****)”; that for `Cc1cc(N2CC[C@](C)(c3ccccc3)C2)cn2nc(C(=O)NC3CN(c4cccc(C(=O)O)n4)CC4(COC4)C3)nc12` (stereo partly drawn) [Compound 699, 6-[6-[[8-methyl-6-[(3R)-3-methyl-3-phenyl-pyrrolidin-1-yl]-[1,2,4]triazolo[1,5-a]pyridine-2-carbonyl]amino]-2-oxa-8-azaspiro[3.5]nonan-8-yl]pyridine-2-carboxylic acid], “***** (>2.5° C.=*****)”.

Consider `Cc1cc(N2CC[C@](C)(c3cccc(F)c3)C2)cn2nc(C(=O)NC3CCN(c4cccc(C(=O)O)n4)CC34COC4)nc12` (some centres unmarked) [Compound 700], for which the DSF result is on record as “***** (>2.5° C.=*****)”.

As to `Cc1cc(N2CC[C@@](C)(n3ccc(C(F)(F)F)n3)C2)cn2nc(C(=O)N[C@@H]3CCN(c4cccc(C(=O)O)n4)CC34COC4)nc12` [Compound 701], the DSF entry was “***** (>2.5° C.=*****)”.

`Cc1cc(N2CC[C@](C)(c3ccccc3)C2)cn2nc(C(=O)N3CCC(Nc4cccc(C(=O)O)n4)C4(COC4)C3)nc12` (some centres unmarked) [Compound 702]: the DSF entry is listed as “***** (>2.5° C.=*****)”. As for `Cc1cc(N2CC[C@](C)(c3ccccc3)C2)cn2nc(C(=O)N3C[C@H](O)[C@@]4(CCN(c5cccc(C(=O)O)n5)C4)C3)nc12` [Compound 703, Mis6-[4-hydroxy-2-[8-methyl-6-[(3R)-3-methyl-3-phenyl-pyrrolidin-1-yl]-[1,2,4]triazolo[1,5-a]pyridine-2-carbonyl]-2,7-diazaspiro[4.4]nonan-7-yl]pyridine-2-carboxylic acid], the entry is “***** (>2.5° C.=*****)”; as for `Cc1cc(N2CC[C@](C)(c3ccccc3)C2)cn2nc(C(=O)N3CC[C@H]4[C@@H]3CC(=O)N4c3cccc(C(=O)O)n3)nc12` [Compound 704, 6-((3aS,6aS)-4-(8-methyl-6-((R)-3-methyl-3-phenylpyrrolidin-1-yl)-[1,2,4]triazolo[1,5-a]pyridine-2-carbonyl)-2-oxohexahydropyrrolo[3,2-b]pyrrol-1(2H)-yl)picolinic acid], “***** (>2.5° C.=*****)”; as for `COC(C)(CC(=O)N1CC[C@@]2(CCN(C(=O)c3nc4c(C)cc(N5CC[C@](C)(c6ccccc6)C5)cn4n3)C2)C1)C(=O)O` (stereo partly drawn) [Compound 706, 2-methoxy-2-methyl-4-[(5R)-2-[8-methyl-6-[(3R)-3-methyl-3-phenyl-pyrrolidin-1-yl]-[1,2,4]triazolo[1,5-a]pyridine-2-carbonyl]-2,7-diazaspiro[4.4]nonan-7-yl]-4-oxo-butanoic acid], “***** (>2.5° C.=*****)”. The result for `Cc1cc(N2CC[C@](C)(c3ccccc3)C2)cn2nc(C(=O)N3CC[C@@]4(CCN(C(=O)CC(C)(C)C(=O)O)C4)C3)nc12` [Compound 707, 2,2-dimethyl-4-[(5R)-2-[8-methyl-6-[(3R)-3-methyl-3-phenyl-pyrrolidin-1-yl]-[1,2,4]triazolo[1,5-a]pyridine-2-carbonyl]-2,7-diazaspiro[4.4]nonan-7-yl]-4-oxo-butanoic acid] reads “***** (>2.5° C.=*****)”. As to `Cc1cc(N2CC[C@](C)(c3ccccc3)C2)cn2nc(C(=O)N3CC[C@@]4(CCN(C(=O)[C@@H]5CC[C@H](C(=O)O)C5)C4)C3)nc12` [Compound 708, (1S,3R)-3-[(5R)-7-[8-methyl-6-[(3R)-3-methyl-3-phenyl-pyrrolidin-1-yl]-[1,2,4]triazolo[1,5-a]pyridine-2-carbonyl]-2,7-diazaspiro[4.4]nonane-2-carbonyl]cyclopentanecarboxylic acid], the DSF result is “***** (>2.5° C.=*****)”.

Regarding `Cc1cc(N2CC[C@](C)(c3ccccc3)C2)cn2nc(C(=O)N3CC[C@@]4(CCN(C(=O)C5CC(C)(C(=O)O)C5)C4)C3)nc12` (some centres unmarked) [Compound 709], the DSF entry is reported as “***** (>2.5° C.=*****)”. Turning to `Cc1ccc(N2CC[C@@]3(CCN(C(=O)c4nc5c(C)cc(N6CC[C@](C)(c7ccccc7)C6)cn5n4)C3)C2)nc1C(=O)O` [Compound 710], the DSF entry was “***** (>2.5° C.=*****)”. The result for `Cc1cc(N2CC[C@](C)(c3ccccc3)C2)cn2nc(C(=O)N3CC[C@@]4(CCN(c5ccc(F)c(C(=O)O)n5)C4)C3)nc12` [Compound 711] reads “***** (>2.5° C.=*****)”; that for `Cc1cc(N2CC[C@](C)(c3ccccc3)C2)cn2nc(C(=O)N3CC[C@@]4(CCN(C(=O)C56CC(C(=O)O)(C5)C6)C4)C3)nc12` [Compound 712], “***** (>2.5° C.=*****)”; that for `Cc1cc(N2CC[C@](C)(c3ccccc3)C2)cn2nc(C(=O)N3CC[C@@]4(CCN(C(=O)C56CCC(C(=O)O)(C5)C6)C4)C3)nc12` [Compound 713], “***** (>2.5° C.=*****)”. For the molecule `Cc1cc(N2CC[C@](C)(c3ccccc3)C2)cn2nc(C(=O)N3CC[C@@]4(CCN(c5cc(C(=O)O)ccn5)C4)C3)nc12` [Compound 714], the DSF entry was “***** (>2.5° C.=*****)”. The result for `Cc1cc(N2CC[C@](C)(c3ccccc3)C2)cn2nc(C(=O)N3CC[C@@]4(CCN(C(=O)c5cccc(C(=O)O)n5)C4)C3)nc12` [Compound 715] reads “***** (>2.5° C.=*****)”.

With `Cc1cc(N2CC[C@](C)(c3ccccc3)C2)cn2nc(C(=O)N3CCC4(CCN(c5nccc(C(=O)O)n5)C4)C3)nc12` (some centres unmarked) [Compound 716], the DSF entry was “***** (>2.5° C.=*****)”. Regarding `Cc1cc(N2CC[C@](C)(c3ccccc3)C2)cn2nc(C(=O)N3CCC4(CCN(c5cncc(C(=O)O)c5)C4)C3)nc12` (some centres unmarked) [Compound 717], the DSF entry is on record as “***** (>2.5° C.=*****)”.

For the origin of these results see patent US20260285857A1, “BICYCLIC AND HETEROCYCLIC AMIDE COMPOUNDS” (priority 2024, published 2026).
